Assay: hydroxyl radical-scavenging assay
Assay type: biochemical
Details: ED50 <20 μM considered active

| Structure (SMILES) | hydroxyl radical scavenging ED50 (concentration scavenging hydroxyl radical by 50%) |
| --- | --- |
| O=c1c(O)c(-c2ccc(O)c(O)c2)oc2cc(O)cc(O)c12 [quercetin, reference compound] | 1.3 µM |
| CC(=O)c1ccc(O)cn1 [Compound 6, 5-hydroxy-2-pyridyl methyl ketone] | >20 µM |
| COC(=O)C(C)n1c(C=O)ccc1CO (stereo not drawn) [Compound 1, methyl 2-[2-formyl-5-(hydroxymethyl)-1H-pyrrol-1-yl]propanoate] | 16.7 µM |

Reference: paper PMC4047925 (Journal of Agricultural and Food Chemistry, 2014)
